These results are taken from the supplement of paper PMC4976141.

The test system of data set [1] is MKN-45. Briefly: % viability under drug (72 h drug + 72 h recovery), miRNA mimic relative to NTC in DMSO; higher = more surviving cells. Particulars: drug used in drug arm: crizotinib 1 uM; treatment: drug. As for the experimental part:
(§1)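 26 miRNA mimics were transfected into 8 cancer cell lines in triplicate. 48 h post-transfection, cells were treated 72 h with DMSO or a line-specific drug, then recovered 72 h drug-free. Drugs: COLO-205 AZ628 1 uM, MKN-45 crizotinib 1 uM, NCI-H596 paclitaxel 6 uM, EVSA-T GDC-0980 2.5 uM, M14 AZ628 1 uM, HCC-1954 GDC-0980 2.5 uM, NCI-H441 carboplatin 2.5 uM, SKBr3 lapatinib 1 uM. Surviving cells are expressed as % of NTC-transfected cells in DMSO (the NTC drug arm itself is about 30-50%), mean +- SEM.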

For data set [2], the system named is SK-BR-3. The data set is described as above. As to conditions: drug used in drug arm: lapatinib 1 uM; treatment: drug. On the procedure:
as §1

Data set [3] concerns M14. Described as above. As to conditions: drug used in drug arm: AZ628 1 uM; treatment: drug. On the procedure: as §1
Data set [4] concerns NCI-H596. Described as above. Particulars: drug used in drug arm: paclitaxel 6 uM; treatment: drug. On the procedure:
as §1

Data set [5] relates to HCC-1954. Described as above. Particulars: drug used in drug arm: GDC-0980 2.5 uM; treatment: drug. As for the experimental part: as §1
Data set [6] relates to COLO-205. The description is as above. Particulars: drug used in drug arm: AZ628 1 uM; treatment: drug. On the procedure: as §1
Data set [7] has as its system NCI-H441. Described as above. Particulars: drug used in drug arm: carboplatin 2.5 uM; treatment: drug. On the procedure: as §1
In data set [8] the test system is EVSA-T. The data set is described as above. As to conditions: drug used in drug arm: GDC-0980 2.5 uM; treatment: drug. On the procedure:
as §1

Data set [9] concerns MKN-45. The data set is described as follows: % viability in DMSO, miRNA mimic relative to NTC in DMSO; higher = less cytotoxic. Particulars: drug used in drug arm: crizotinib 1 uM; treatment: DMSO. On the procedure: as §1
Data set [10] relates to SK-BR-3. The description is as above. As to conditions: drug used in drug arm: lapatinib 1 uM; treatment: DMSO. On the procedure: as §1
The test system of data set [11] is M14. The description is as above. As to conditions: drug used in drug arm: AZ628 1 uM; treatment: DMSO. On the procedure:
as §1

The subject of data set [12] is NCI-H596. Described as above. As to conditions: drug used in drug arm: paclitaxel 6 uM; treatment: DMSO. On the procedure: as §1
Data set [13] deals with HCC-1954. The data set is described as above. Particulars: drug used in drug arm: GDC-0980 2.5 uM; treatment: DMSO. On the procedure:
as §1

Data set [14] deals with COLO-205. Described as above. Particulars: drug used in drug arm: AZ628 1 uM; treatment: DMSO. As for the experimental part:
as §1

Data set [15] deals with NCI-H441. The description is as above. Particulars: drug used in drug arm: carboplatin 2.5 uM; treatment: DMSO. On the procedure: as §1
For data set [16], the system named is EVSA-T. The description is as above. Particulars: drug used in drug arm: GDC-0980 2.5 uM; treatment: DMSO. As for the experimental part:
as §1

Another data set concerns PC9. Briefly: cell count fold change with erlotinib, miRNA mimic vs non-targeting control (log2 ratio); higher = more drug-tolerant survivors than NTC. As to conditions: erlotinib 1 µM; 72 h drug + 72 h drug-free recovery; perturbation: miRNA mimic.

± gives the uncertainty stated by the source.

As for GAAUGUUGCUCGGUGAACCCCU, the “% viability under drug” value is 0.355 ± 0.046% in the data set on MKN-45 [1]; 10.1 ± 0.42% in the data set on SK-BR-3 [2]; 3.18 ± 0.17% in the data set on M14 [3]; 0.932 ± 0.015% in the data set on NCI-H596 [4]; 0.831 ± 0.092% in the data set on HCC-1954 [5]; 36.6 ± 1.2% in the data set on COLO-205 [6]. Also, the “% viability under drug” value in the data set with NCI-H441 [7] was 4.29 ± 0.14%; in the data set with EVSA-T [8], 0.08 ± 0.004%. For the same sequence, the “% viability in DMSO” value was 8.61 ± 2.6% with MKN-45 [9]; 12.4 ± 5.7% with SK-BR-3 [10]; 17.3 ± 2.9% in the data set on M14 [11]; 7.07 ± 2.1% in the data set on NCI-H596 [12]; 10.8 ± 1.4% in the data set on HCC-1954 [13]; 102 ± 1.1% in the data set on COLO-205 [14]. Moreover, the “% viability in DMSO” value in the data set on NCI-H441 [15] was 7.26 ± 0.039%; in the data set on EVSA-T [16], 0.953 ± 0.055%. Besides, the “cell count fold change with erlotinib” value with PC9 was -3.27.

Consider GAGCCAGUUGGACAGGAGC, for which the “% viability under drug” value stood at 1.7 ± 0.21% in the data set on MKN-45 [1]; 48.1 ± 28% with SK-BR-3 [2]; 6.67 ± 1.9% in the data set on M14 [3]; 0.418 ± 0.032% with NCI-H596 [4]; 0.433 ± 0.085% in the data set on HCC-1954 [5]; 38.9 ± 1% with COLO-205 [6]. The figures for the “% viability under drug” value in the data set with NCI-H441 [7] and with EVSA-T [8] were 18.1 ± 1.8% and 0.0905 ± 0.0095%, respectively. The “% viability in DMSO” value in the data set on MKN-45 [9] is 70.7 ± 8%; in the data set on SK-BR-3 [10] it was 178 ± 130%; in the data set with M14 [11], 97.9 ± 14%; in the data set with NCI-H596 [12], 66.947 ± 0.021%; with HCC-1954 [13], 34 ± 6.2%; in the data set with COLO-205 [14], 101 ± 6.3%. Moreover, the “% viability in DMSO” value was 60.7 ± 17% with NCI-H441 [15] and 28.9 ± 1% with EVSA-T [16]. In the data set on PC9, the “cell count fold change with erlotinib” value is -4.82.

With GCGAGGACCCCUCGGGGUCUGAC, the “% viability under drug” value in the data set on MKN-45 [1] amounted to 1.84 ± 0.18%; with SK-BR-3 [2], 16.6 ± 6.8%; in the data set on M14 [3], 8.07 ± 0.6%; in the data set on NCI-H596 [4], 3.656 ± 0.036%; in the data set with HCC-1954 [5] it was 2.54 ± 0.19%; in the data set with COLO-205 [6], 43 ± 1.1%. The “% viability under drug” value was determined as 7.07 ± 0.39% with NCI-H441 [7] and 1.21 ± 0.28% in the data set with EVSA-T [8]. The “% viability in DMSO” value in the data set with MKN-45 [9] was 53.2 ± 7%; with SK-BR-3 [10], 48.4 ± 5%; with M14 [11], 43.3 ± 5.2%; in the data set on NCI-H596 [12], 76.8 ± 10%; in the data set on HCC-1954 [13], 56.4 ± 10%; with COLO-205 [14], 105.2 ± 0.58%. Further, the “% viability in DMSO” value in the data set on NCI-H441 [15] was found to be 21.6 ± 1.6%; with EVSA-T [16] it was 40.8 ± 0.66%. Besides, the “cell count fold change with erlotinib” value in the data set with PC9 turned out to be 0.35.
